Experiment [1] has as its target T1, ERβ (Homo sapiens, UniProt Q92731). The format is binding. The settings on record: for β-selectivity (fold): IC50 for ERα divided by IC50 for ERβ, from FP.
The subject of experiment [2] is LNCaP cells. Put plainly: LNCaP cell proliferation. The format is cell-based. The conditions noted are these: 1 μM final concentration, 24 h treatment.
For experiment [3], the target named is His6-hERβ LBD (Homo sapiens, UniProt Q92731). The format is binding. The conditions noted are these: for DSF primary screen: change in melting temperature of ERβ LBD: 500 µM.
Chain of His6-hERβ LBD (Q92731 261-530): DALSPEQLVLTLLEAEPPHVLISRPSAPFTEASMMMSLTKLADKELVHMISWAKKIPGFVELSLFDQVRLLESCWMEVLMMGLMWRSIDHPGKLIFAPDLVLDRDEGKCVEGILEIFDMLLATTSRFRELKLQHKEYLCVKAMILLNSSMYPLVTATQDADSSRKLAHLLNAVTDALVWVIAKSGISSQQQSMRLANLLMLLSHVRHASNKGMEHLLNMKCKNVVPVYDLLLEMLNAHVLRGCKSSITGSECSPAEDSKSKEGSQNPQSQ
In experiment [4] the target is T1, ERβ. The conditions noted are these: cited from earlier work.
The conditions of experiment [5]: Phase II double-blind clinical trial; cited from earlier work.
The target in experiment [6] is T2, ERα (Homo sapiens, UniProt P03372).
T2 sequence (P03372 1-595): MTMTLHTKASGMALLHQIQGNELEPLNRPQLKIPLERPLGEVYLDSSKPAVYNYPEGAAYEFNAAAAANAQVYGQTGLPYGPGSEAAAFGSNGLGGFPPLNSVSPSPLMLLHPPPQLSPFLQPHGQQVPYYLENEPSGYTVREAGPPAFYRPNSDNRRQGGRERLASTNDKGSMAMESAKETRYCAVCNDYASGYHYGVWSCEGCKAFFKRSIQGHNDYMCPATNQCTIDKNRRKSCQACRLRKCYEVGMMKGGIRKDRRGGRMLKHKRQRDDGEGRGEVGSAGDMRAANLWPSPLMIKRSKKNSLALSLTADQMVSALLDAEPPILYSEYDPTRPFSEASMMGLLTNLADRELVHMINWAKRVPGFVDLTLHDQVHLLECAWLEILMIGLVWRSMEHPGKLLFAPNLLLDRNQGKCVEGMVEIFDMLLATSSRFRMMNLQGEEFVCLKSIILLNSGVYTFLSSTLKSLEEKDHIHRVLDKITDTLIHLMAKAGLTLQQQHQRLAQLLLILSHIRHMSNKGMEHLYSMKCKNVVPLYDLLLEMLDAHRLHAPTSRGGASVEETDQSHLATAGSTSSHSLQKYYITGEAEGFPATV
The settings on record: transiently transfected MCF-7 cells; cited from earlier work.

In experiment [7] the target is T1, ERβ. The settings on record: transiently transfected MCF-7 cells; cited from earlier work.
The target of experiment [8] is full length ERβ (Homo sapiens, UniProt Q92731). Put plainly: ERE-luciferase transactivation in HeLa cells, full length ERβ. The format is cell-based.
Chain of full length ERβ (Q92731 whole entry): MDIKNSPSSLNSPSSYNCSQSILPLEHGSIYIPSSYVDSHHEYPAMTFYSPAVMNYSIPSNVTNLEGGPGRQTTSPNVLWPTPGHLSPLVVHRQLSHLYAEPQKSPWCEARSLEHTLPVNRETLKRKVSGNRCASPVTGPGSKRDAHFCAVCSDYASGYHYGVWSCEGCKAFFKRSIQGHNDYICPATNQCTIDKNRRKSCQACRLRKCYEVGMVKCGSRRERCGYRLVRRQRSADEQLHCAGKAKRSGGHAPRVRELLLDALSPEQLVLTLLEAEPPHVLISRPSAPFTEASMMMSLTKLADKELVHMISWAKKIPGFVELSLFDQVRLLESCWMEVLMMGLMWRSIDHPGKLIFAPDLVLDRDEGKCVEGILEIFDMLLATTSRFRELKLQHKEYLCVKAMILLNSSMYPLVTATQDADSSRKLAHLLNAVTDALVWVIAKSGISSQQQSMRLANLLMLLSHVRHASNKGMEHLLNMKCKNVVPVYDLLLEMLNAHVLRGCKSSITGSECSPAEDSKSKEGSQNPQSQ
Experiment [9] deals with T2, ERα. Format: binding.
Experiment [10] deals with T1, ERβ. The settings on record: radioligand binding assay; cited from earlier work.
For experiment [11], the target named is GAL4 DBD-ERβ LBD (Homo sapiens, UniProt Q92731). The experiment in a line: GAL4 transactivation assay in HEK293T cells. Format: cell-based.
Chain of GAL4 DBD-ERβ LBD (Q92731 264-498 limits assumed): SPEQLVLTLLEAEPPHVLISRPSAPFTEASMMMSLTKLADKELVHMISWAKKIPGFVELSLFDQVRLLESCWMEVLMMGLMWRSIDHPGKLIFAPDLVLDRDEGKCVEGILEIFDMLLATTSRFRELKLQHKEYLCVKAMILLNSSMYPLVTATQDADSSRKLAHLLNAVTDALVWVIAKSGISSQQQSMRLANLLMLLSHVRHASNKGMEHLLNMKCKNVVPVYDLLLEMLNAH

“Also recorded” adds a separate entry of the source. Structures can show the parent of a compound that is named as a salt. *1 amine or outer side, *2 acyl side, *3 side chain or, on linkers, in order; H or OH if unused. Where a SMILES comes first, the peptide text is derived from it. Bridges are numbered along the chain shown (N, C = ends). Roman numbers before positions name the chains, in order. [ ]: non-standard residue; d: D form. Actinocin(9to1) = Cc1c2oc3c(C)ccc(C(=O)[*:1])c3nc-2c(C(=O)[*:2])c(N)c1=O; NMeV = CN[C@H](C(=O)O)C(C)C; Sar = CNCC(=O)O

T1 sequence (Q92731 whole entry): as the sequence (Q92731 whole entry) above

For `C[C@]12CC[C@@H]3c4ccc(O)cc4CC[C@H]3[C@@H]1C[C@@H](O)[C@@H]2O` [estriol], in [1], the “Binding to ERβ in FP (competition with fluorescein labeled E2), result in words” value (“Binding to ERβ in FP” for short) was “binders; also recorded: greater relative affinity than estrone”.

As to `C[C@@H](CO)CCC[C@@H](C)[C@H]1CC[C@H]2[C@@H]3CC=C4C[C@@H](O)CC[C@]4(C)[C@H]3CC[C@]12C` [27-hydroxycholesterol, reference compound], in experiment [2], the “LNCaP cell proliferation (cell viability)” value was “Suppression of proliferation”. Take `COc1cc(/C=C/c2ccc(O)cc2)cc(OC)c1` [pterostilbene]: in experiment [3], the “DSF primary screen: change in melting temperature of ERβ LBD” value (shortened to “DSF primary screen: change”) is “putative binders”. Same read-out and setting: to `Cc1c2oc3c(C)ccc(C(=O)N[C@@H]4C(=O)N[C@H](C(C)C)C(=O)N5CCC[C@H]5C(=O)N(C)CC(=O)N(C)[C@@H](C(C)C)C(=O)O[C@@H]4C)c3nc-2c(C(=O)N[C@@H]2C(=O)N[C@H](C(C)C)C(=O)N3CCC[C@H]3C(=O)N(C)CC(=O)N(C)[C@@H](C(C)C)C(=O)O[C@@H]2C)c(N)c1=O` [dactinomycin] (I: T[dV]P[Sar][NMeV] / II: T[dV]P[Sar][NMeV]; ester I:1-I:C, II:1-II:C; linker I:N-II:N via Actinocin(9to1)) belongs “elicited changes in the protein melting temperature”. In the case of medicarpin, in [1], the “β-selectivity (fold)” value is “greater than 2 fold”. For the molecule `c1ccc2c(Cc3c[nH]c4ccccc34)c[nH]c2c1` [3,3’-diindolylmethane], the “Selectivity of binding to ERβ” value in experiment [4] was “did not bind selectively to ERβ”. `C[C@]12CC[C@H]3[C@@H](CC=C4C[C@@H](O)CC[C@@]43C)[C@@H]1CC[C@@H]2O` [5-androstenediol]: in [4], the ER subtype selectivity entry is “ERβ selective”.

Regarding goserelin acetate, the “DSF primary screen: change” value in [3] is “elicited changes in the protein melting temperature”. As for `CCCCCC[C@H]1C(=O)O[C@H](C)[C@H](NC(=O)c2cccc(NC=O)c2O)C(=O)O[C@@H](C)[C@@H]1OC(=O)CC(C)C` [antimycin A], the “DSF primary screen: change” value in experiment [3] is given as “elicited changes in the protein melting temperature”. With `C[C@]12CC[C@H]3C(=CCc4cc(O)ccc43)[C@@H]1CCC2=O` [equilin], the “DSF primary screen: change” value in experiment [3] is recorded as “putative binders”. Still for that read-out and setting: with `C[C@@H]1[C@H](O)[C@@H](C)/C=C/C=C/CC/C=C/C=C/C=C/C=C/C(O[C@H]2O[C@H](C)[C@@H](O)[C@H](N)[C@@H]2O)CC2O[C@](O)(CC(O)C(O)CCC(O)CC(O)CC(O)CC(=O)O[C@H]1C)CC(O)C2C(=O)O` (some centres unmarked) [nystatin] the entry was “elicited changes in the protein melting temperature”; with `CCOC(=O)C1=C(C)NC(C)=C(C(=O)OC)C1c1cccc(Cl)c1Cl` (centres unmarked) [felodipine], “showed up as hits in the primary assay”. With `C=Cc1cc(O)cc2nc(-c3ccc(O)c(F)c3)oc12` [ERB-041], the “Efficacy in rheumatoid arthritis” value in [5] is “failed to demonstrate efficacy”. With `O=c1cc(-c2ccc(O)c(O)c2)oc2cc(O)cc(O)c12` [luteolin], the “Activation of ERα” value in experiment [6] is given as “no effect on ERα”. Moreover, in [7], the “Activation of ERβ” value is “very slight effect on ERβ”. Moreover, the “β-selectivity (fold)” value in experiment [1] was “greater than 2 fold”. Turning to `C[C@]12CC[C@H](O)CC1=CC[C@@H]1[C@@H]2CC[C@]2(C)C(=O)CC[C@@H]12` [DHEA, dehydroepiandrosterone], the “Relative transactivation activity, full length ERβ” value in experiment [8] (1 μM final concentration) is recorded as “greater capacity for ERβ activation than the selective partial agonist 27-hydroxycholesterol”. Also, in experiment [8] (full length ERs, 1 μM), the “ER subtype selectivity of transactivation (ERβ versus ERα)” value is reported as “strong ERβ selectivity”. Besides, the “Binding to ERα in FP (competition with fluorescein labeled E2), result in words” value (shortened to “Binding to ERα in FP”) in experiment [9] is “binders”. In addition, the “Ki for ERβ compared with ERα” value in [10] is recorded as “lower for ERβ than ERα”. In [3], the “Tm of His6-hERβ LBD purification product” value is given as ~ 55 ºC and the “DSF primary screen: change” value is reported as “putative binders”. In experiment [1], the “Binding to ERβ in FP” value is given as “binders” and the “β-selectivity (fold)” value is “greater than 2 fold”. For the same molecule, the “LNCaP cell proliferation (cell viability)” value in experiment [2] is listed as “Suppression of proliferation”. `CC/C(=C(/CC)c1ccc(O)cc1)c1ccc(O)cc1` [diethylstilbestrol, reference compound]: in experiment [1], the “Binding to ERβ in FP” value is “binders”. For `CC[C@]1(O)CC[C@H]2[C@@H]3CCC4=CCCC[C@@H]4[C@H]3CC[C@@]21C` [ethylestrenol], the “DSF primary screen: change” value in experiment [3] was “putative binders”. Take `CC[C@H](c1ccc(O)cc1)[C@@H](CC)c1ccc(O)cc1` [hexestrol, reference compound]: the “Binding to ERα in FP” value in experiment [9] was “binders”. In experiment [10], the “Ki for ERβ compared with ERα” value is “the same for both isoforms”. The “DSF primary screen: change” value in experiment [3] is given as “putative binders”. Further, the “Binding to ERβ in FP” value in experiment [1] is “binders”. In the case of `C#C[C@]1(O)CC[C@H]2[C@@H]3CCc4cc(O)ccc4[C@H]3CC[C@@]21C` [ethinyl estradiol], in experiment [3], the “DSF primary screen: change” value is “putative binders”. Take `CCN(CC)CCOc1ccc(C(=C(Cl)c2ccccc2)c2ccccc2)cc1` [clomiphene citrate]: the “DSF primary screen: change” value in experiment [3] is “putative binders”. Moreover, in [11], the IC50 (as a rule, the concentration that inhibits the measured activity by half) was determined as 221 nM. For the same molecule, the “Binding to ERβ in FP” value in experiment [1] is given as “binders”.

With `O=C1C[C@@H](c2ccc(O)cc2)Oc2cc(O)cc(O)c21` [naringenin], the “DSF primary screen: change” value in experiment [3] is listed as “putative binders”. Further, the “β-selectivity (fold)” value in experiment [1] was “greater than 2 fold”. Take `C[C@H]1CCC[C@H](O)CCCCCc2cc(O)cc(O)c2C(=O)O1` [zeranol]: in [9], the “Binding to ERα in FP” value is “binders”.

The values above are taken from paper PMC4242290 (Nuclear Receptor Signaling, 2014).
